Measured values published in the Kinase Knowledgebase extract (Sharma et al. 2016).

The compounds below were run against CDK2 (human) (UniProt P24941) (assay: Enzyme Assay). Details: not given.

Row | Structure (SMILES) | Ki [nM]
1 | CN(C)CCNc1ccc(S(=O)(=O)N2CCC(Nc3nc(N)c(C(=O)c4c(F)cccc4F)s3)CC2)cn1 | 1.2

Same assay, conditions: concentration not given here

Row | Structure (SMILES) | inhibition [%]
2 | Nc1nc(NC2CCN(C(=O)CCc3ccc(O)cc3)CC2)sc1C(=O)c1c(F)cccc1F | 13
3 | Nc1nc(NC2CCN(C(=O)C3(c4ccccc4)CCCC3)CC2)sc1C(=O)c1c(F)cccc1F | -13
4 | CCCC/C=C/C(=O)N1CCC(Nc2nc(N)c(C(=O)c3c(F)cccc3F)s2)CC1 | 27
5 | CCC(C)C(C(=O)N1CCC(Nc2nc(N)c(C(=O)c3c(F)cccc3F)s2)CC1)c1ccccc1 (stereo not drawn) | 49
6 | CC(C)[C@@H]1CC[C@@H](C)C[C@H]1OC(=O)N1CCC(Nc2nc(N)c(C(=O)c3c(F)cccc3F)s2)CC1 | -45
7 | CC(=O)O[C@@H](C(=O)N1CCC(Nc2nc(N)c(C(=O)c3c(F)cccc3F)s2)CC1)c1ccccc1 | 25
8 | Nc1nc(NC2CCN(C(=O)C(c3ccccc3)c3ccccc3)CC2)sc1C(=O)c1c(F)cccc1F | -34
9 | CC(C)c1ccc(/C=C/C(=O)N2CCC(Nc3nc(N)c(C(=O)c4c(F)cccc4F)s3)CC2)cc1 | 52
10 | CCCCc1ccc(C(=O)N2CCC(Nc3nc(N)c(C(=O)c4c(F)cccc4F)s3)CC2)nc1 | -45
11 | CCCSc1ncccc1C(=O)N1CCC(Nc2nc(N)c(C(=O)c3c(F)cccc3F)s2)CC1 | 44
12 | C[C@H]1CC[C@H](C(=O)N2CCC(Nc3nc(N)c(C(=O)c4c(F)cccc4F)s3)CC2)CC1 | 65
13 | Nc1nc(NC2CCN(C(=O)COc3ccccc3O)CC2)sc1C(=O)c1c(F)cccc1F | 63
14 | Cc1ccc(C(C)C)c(C(=O)N2CCC(Nc3nc(N)c(C(=O)c4c(F)cccc4F)s3)CC2)c1O | 30
15 | Nc1nc(NC2CCN(C(=O)C(O)c3c(F)cccc3F)CC2)sc1C(=O)c1c(F)cccc1F (stereo not drawn) | 54
16 | C=CCCC(=O)N1CCC(Nc2nc(N)c(C(=O)c3c(F)cccc3F)s2)CC1 | 68
17 | CN(C)c1ccccc1C(=O)N1CCC(Nc2nc(N)c(C(=O)c3c(F)cccc3F)s2)CC1 | 6
18 | CC/C=C\CC(=O)N1CCC(Nc2nc(N)c(C(=O)c3c(F)cccc3F)s2)CC1 | 85
19 | Cc1cccc(CC(=O)N2CCC(Nc3nc(N)c(C(=O)c4c(F)cccc4F)s3)CC2)c1 | 55
20 | Nc1nc(NC2CCN(C(=O)CCC3CCCCC3=O)CC2)sc1C(=O)c1c(F)cccc1F (stereo not drawn) | 50
21 | CCCCC(O)C(=O)N1CCC(Nc2nc(N)c(C(=O)c3c(F)cccc3F)s2)CC1 (stereo not drawn) | 16
22 | CN(C)[C@@H](Cc1ccccc1)C(=O)N1CCC(Nc2nc(N)c(C(=O)c3c(F)cccc3F)s2)CC1 | 10

Row | Structure (SMILES) | inhibition [%]
23 | Nc1nc(NC2CCN(S(=O)(=O)c3ccc(Oc4ccncc4)cc3)CC2)sc1C(=O)c1c(F)cccc1F | -28
24 | Nc1nc(NC2CCN(C(=O)CCCCCc3ccccc3)CC2)sc1C(=O)c1c(F)cccc1F | 12
25 | NC(=O)Nc1ccc(C(=O)N2CCC(Nc3nc(N)c(C(=O)c4c(F)cccc4F)s3)CC2)cc1 | 76
26 | Nc1nc(NC2CCN(C(=O)/C=C/c3ccc(O)cc3)CC2)sc1C(=O)c1c(F)cccc1F | 66
27 | Nc1nc(NC2CCN(S(=O)(=O)c3cccc([N+](=O)[O-])c3)CC2)sc1C(=O)c1c(F)cccc1F | -23
28 | CN(C)C(=O)N1CCC(Nc2nc(N)c(C(=O)c3c(F)cccc3F)s2)CC1 | -43
29 | Nc1nc(NC2CCN(C(=O)C3CCOC3)CC2)sc1C(=O)c1c(F)cccc1F (stereo not drawn) | 81
30 | COCCOCCOCC(=O)N1CCC(Nc2nc(N)c(C(=O)c3c(F)cccc3F)s2)CC1 | 38
31 | Nc1nc(NC2CCN(C(=O)Cn3cnnn3)CC2)sc1C(=O)c1c(F)cccc1F | 87
32 | CC(C)CCCC(=O)N1CCC(Nc2nc(N)c(C(=O)c3c(F)cccc3F)s2)CC1 | 71
33 | Cc1cc(C(=O)N2CCC(Nc3nc(N)c(C(=O)c4c(F)cccc4F)s3)CC2)ccc1Cl | 51
34 | CC(C)C(O)C(=O)N1CCC(Nc2nc(N)c(C(=O)c3c(F)cccc3F)s2)CC1 (stereo not drawn) | 27
35 | COC1CCCC(C(=O)N2CCC(Nc3nc(N)c(C(=O)c4c(F)cccc4F)s3)CC2)C1 (stereo not drawn) | 63
36 | CCOc1ccccc1/C=C/C(=O)N1CCC(Nc2nc(N)c(C(=O)c3c(F)cccc3F)s2)CC1 | 80
37 | COc1ccc(C(O)C(=O)N2CCC(Nc3nc(N)c(C(=O)c4c(F)cccc4F)s3)CC2)cc1 (stereo not drawn) | 58
38 | CC(C)[C@@H](O)C(=O)N1CCC(Nc2nc(N)c(C(=O)c3c(F)cccc3F)s2)CC1 | 34
39 | Nc1nc(NC2CCN(C(=O)c3ccc4[nH]nnc4c3)CC2)sc1C(=O)c1c(F)cccc1F | 49
40 | C=CCSc1ncccc1C(=O)N1CCC(Nc2nc(N)c(C(=O)c3c(F)cccc3F)s2)CC1 | 48
41 | COc1ccc2oc(C(=O)N3CCC(Nc4nc(N)c(C(=O)c5c(F)cccc5F)s4)CC3)cc2c1 | 61
42 | Nc1nc(NC2CCN(C(=O)OCC3c4ccccc4-c4ccccc43)CC2)sc1C(=O)c1c(F)cccc1F | -12
43 | Nc1nc(NC2CCN(C(=O)Cc3cc(F)c(F)c(F)c3)CC2)sc1C(=O)c1c(F)cccc1F | 57

Row | Structure (SMILES) | inhibition [%]
44 | Cc1c(S(=O)(=O)N2CCC(Nc3nc(N)c(C(=O)c4c(F)cccc4F)s3)CC2)sc2ccc(Cl)cc12 | -2
45 | Cc1ccc(C)c(/C=C/C(=O)N2CCC(Nc3nc(N)c(C(=O)c4c(F)cccc4F)s3)CC2)c1 | 34
46 | Cc1cc(C)c(/C=C/C(=O)N2CCC(Nc3nc(N)c(C(=O)c4c(F)cccc4F)s3)CC2)cc1C | 76
47 | Cc1cnc(C(=O)N2CCC(Nc3nc(N)c(C(=O)c4c(F)cccc4F)s3)CC2)cn1 | 72
48 | Nc1nc(NC2CCN(C(=O)COc3cccc(C=O)c3)CC2)sc1C(=O)c1c(F)cccc1F | 38
49 | Cc1cccc(C(=O)N2CCC(Nc3nc(N)c(C(=O)c4c(F)cccc4F)s3)CC2)n1 | 60
50 | COc1cc(C)ccc1C(=O)N1CCC(Nc2nc(N)c(C(=O)c3c(F)cccc3F)s2)CC1 | 59
51 | COC(=O)[C@H]1CC=CC[C@H]1C(=O)N1CCC(Nc2nc(N)c(C(=O)c3c(F)cccc3F)s2)CC1 | 22
52 | Cc1ccc(F)cc1C(=O)N1CCC(Nc2nc(N)c(C(=O)c3c(F)cccc3F)s2)CC1 | 52
53 | Cc1ccccc1CCC(=O)N1CCC(Nc2nc(N)c(C(=O)c3c(F)cccc3F)s2)CC1 | 48
54 | Nc1nc(NC2CCN(C(=O)CC3Cc4ccccc4C3)CC2)sc1C(=O)c1c(F)cccc1F | 37
55 | Cc1cccc(/C=C/C(=O)N2CCC(Nc3nc(N)c(C(=O)c4c(F)cccc4F)s3)CC2)c1 | 50
56 | Cc1ccc(OCC(=O)N2CCC(Nc3nc(N)c(C(=O)c4c(F)cccc4F)s3)CC2)c(C)c1 | 51
57 | Cc1ccc(CCCC(=O)N2CCC(Nc3nc(N)c(C(=O)c4c(F)cccc4F)s3)CC2)cc1 | 38
58 | C#CCCC(=O)N1CCC(Nc2nc(N)c(C(=O)c3c(F)cccc3F)s2)CC1 | 52
59 | Nc1nc(NC2CCN(C(=O)[C@@H]3CCC(=O)O3)CC2)sc1C(=O)c1c(F)cccc1F | 95
60 | CC(=O)N(C)CC(=O)N1CCC(Nc2nc(N)c(C(=O)c3c(F)cccc3F)s2)CC1 | 40
61 | Cc1ccc(C(=O)/C=C/C(=O)N2CCC(Nc3nc(N)c(C(=O)c4c(F)cccc4F)s3)CC2)cc1 | 78
62 | CC(SCc1ccccc1)C(=O)N1CCC(Nc2nc(N)c(C(=O)c3c(F)cccc3F)s2)CC1 (stereo not drawn) | 50
63 | Nc1nc(NC2CCN(C(=O)/C=C/c3ccccc3F)CC2)sc1C(=O)c1c(F)cccc1F | 71
